PubChem BioAssay (NCI)
“And” between values parts separate entries of the source, which are not always exact repeats. Identical values can stand only once.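 1) Cells in 96-well plates. 2) Compound, 48 h, 5 concentrations. 3) Linear interpolation between surrounding doses. 4) Unreached endpoint = highest concentration. GI50 is the concentration that inhibits growth by half. TGI: total growth inhibition.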

Tests used:
Test in all cases: growth of human tumour cells (NCI), 48 h
786-0 renal = system: 786-0 renal
A549 NSCLC = system: A549 NSCLC
COLO 205 colon = system: COLO 205 colon
HCT-15 colon = system: HCT-15 colon
IGROV1 ovarian = system: IGROV1 ovarian
NCI-H23 lung = system: NCI-H23 lung
OVCAR-3 ovarian = system: OVCAR-3 ovarian
SF-268 CNS = system: SF-268 CNS
SN12C renal = system: SN12C renal
UO-31 renal = system: UO-31 renal
NCI-H522 lung = system: NCI-H522 lung

Row | Compound | TGI (786-0 renal) [µM] | TGI (A549 NSCLC) [µM] | TGI (COLO 205 colon) [µM] | TGI (HCT-15 colon) [µM] | TGI (IGROV1 ovarian) [µM] | TGI (NCI-H23 lung) [µM] | TGI (OVCAR-3 ovarian) [µM] | TGI (SF-268 CNS) [µM] | TGI (SN12C renal) [µM] | TGI (UO-31 renal) [µM] | TGI (NCI-H522 lung) [µM] | GI50 (NCI-H23 lung) | GI50 (UO-31 renal)
1 | O=C1C(NS(=O)(=O)c2ccccc2)=C(N(Cc2ccccc2)Cc2ccccc2)C(=O)c2ccccc21 | > 100 | > 100 | > 100 | > 100 | > 100 | 73.2 | > 100 | > 100 | > 100 | 51.3 | – | – | –
2 | COC(=O)C1(C)OC(C)=NC1(C(=O)OC)C(=O)OC (centres undefined) | > 100 | > 100 | > 100 | > 100 | > 100 | > 100 | > 100 | > 100 | > 100 | > 100 | – | – | –
3 | CC(=O)Oc1cc(S(=O)(=O)Nc2n[nH]c(N)n2)c(S)cc1Cl | > 100 | > 100 | > 100 | > 100 | > 100 | > 100 | > 100 | – | > 100 | > 100 | > 100 | – | –
4 | COC(=O)C1=NN2c3ccccc3CN([C@@H](C)c3ccccc3)C(=O)[C@H]2[C@@H]1C | > 100 | > 100 | 66.8 | > 100 | – | > 100 | > 100 | > 100 | > 100 | > 100 | > 100 | – | –
5 | CN(C)C(=O)Oc1ccc(C(=S)Nc2ccccc2)cc1Br | > 100 | > 100 | 55.3 | > 100 | 48.9 | 57.3 | > 100 | 23.5 | – | > 100 | 52.4 | – | –
6 | CC(C)c1cccc(C(C)C)c1NC(=O)C(=O)C1SC(=S)NC1=O (centres undefined) | > 100 | > 100 | > 100 | > 100 | > 100 | > 100 | – | > 100 | > 100 | > 100 | > 100 | – | –
7 | CC(Nc1n[nH]c(=O)c2c1nnn2Cc1ccccc1)c1ccccc1 (centres undefined) | 30.1 | > 100 | > 100 | > 100 | – | > 100 | > 100 | – | > 100 | > 100 | – | > 100 µM and 43.8 µM | > 100 µM and 23.1 µM
8 | CC[C@H](C)[C@H]1NC(=O)[C@@H](NC(=O)[C@@H](CC(C)C)N(C)C(=O)C2CCCN2C(=O)[C@H](C)O)[C@@H](C)OC(=O)[C@H](Cc2ccccc2)N(C)C(=O)[C@@H]2CCCN2C(=O)[C@H](CC(C)C)NC(=O)[C@@H](C)C(=O)[C@H](C(C)C)OC(=O)C[C@@H]1O (some centres undefined) | 0.0119 | – | 0.0769 | 0.556 | – | – | 0.0113 | 0.00762 | > 14.5 | < 0.00625 | < 0.00625 | – | –
9 | O=C1c2ccccc2C(=O)c2c(O)c(NCCNCCO)cc(O)c21 | 14.1 | 13.5 | – | 14.1 | 6.62 | 16.7 | 15.1 | 15.5 | 14.9 | 11.7 | – | – | –
10 | Cc1cc(Cl)ccc1NC(=O)C(=O)Cc1occc(=O)c1O | > 100 | > 100 | > 100 | > 100 | > 100 | > 100 | – | > 100 | > 100 | > 100 | > 100 | – | –
11 | COC(=O)CNCC1OC2OC(C)(C)OC2C1N=[N+]=[N-] (centres undefined) | > 100 | > 100 | – | > 100 | > 100 | – | > 100 | – | > 100 | > 100 | – | – | –
